Data reported in patent US8962609B2, “Pyrimidine compounds as inhibitors of protein kinases IKK epsilon and/or TBK-1, processes for their preparation, and pharmaceutical compositions containing them” (Domainex Limited, priority 2010, dated 2015).
Read-outs that look alike come from different tables or passages of the source.

What was measured:
IKKβ = IKKβ (Homo sapiens (Human), UniProt O14920); assay: IKKβ radiolabelled P33 ATP assay (Kinase Hotspot Technology); type: biochemical; conditions: for inhibition at 1 µM: read-out: IKK-β percentage inhibition (in brackets); for IC50: single point, read-out: Concentration of compounds required for ~ 50% inhibition, IKK-β
IKKβ, sequence (O14920 whole entry): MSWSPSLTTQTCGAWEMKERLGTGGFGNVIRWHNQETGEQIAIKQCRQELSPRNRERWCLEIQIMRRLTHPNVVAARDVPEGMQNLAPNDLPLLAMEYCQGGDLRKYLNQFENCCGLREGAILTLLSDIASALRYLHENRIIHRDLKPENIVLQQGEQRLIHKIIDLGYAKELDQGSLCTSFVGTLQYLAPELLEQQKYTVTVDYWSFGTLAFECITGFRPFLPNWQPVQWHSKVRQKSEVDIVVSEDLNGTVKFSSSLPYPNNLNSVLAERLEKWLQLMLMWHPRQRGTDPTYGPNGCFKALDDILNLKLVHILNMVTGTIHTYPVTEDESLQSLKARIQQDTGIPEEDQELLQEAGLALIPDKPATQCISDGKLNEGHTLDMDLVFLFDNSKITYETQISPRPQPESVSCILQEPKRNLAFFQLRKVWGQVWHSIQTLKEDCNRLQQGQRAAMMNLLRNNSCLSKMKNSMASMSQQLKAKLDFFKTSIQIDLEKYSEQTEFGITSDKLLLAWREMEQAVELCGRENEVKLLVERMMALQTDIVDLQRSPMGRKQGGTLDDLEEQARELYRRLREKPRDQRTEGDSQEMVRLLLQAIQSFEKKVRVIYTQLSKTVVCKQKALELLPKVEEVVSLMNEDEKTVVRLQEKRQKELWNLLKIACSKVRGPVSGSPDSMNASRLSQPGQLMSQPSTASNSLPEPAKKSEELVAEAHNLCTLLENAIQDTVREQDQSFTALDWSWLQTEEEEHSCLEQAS
Protocol: (§1) The compounds of examples DMX-1,8,9,14 and 16 were tested for activity against TBK1, IKKβ, Jnk1 and Jnk3 in addition to IKK-ε and TBK-1. TBK-1, IKKβ, Jnk1 and Jnk3 were screened using radiolabelled P^33 ATP using the Kinase Hotspot Technology of Reaction Biology Corp. Screening against Jnk-1 and Jnk-3 was carried out at the Km for ATP. IKK-ε and TBK-1 screening was also carried out as described above at the Km for ATP for these enzymes. […] TBK-1, IKKβ and Jnk1 were screened using radiolabelled P^33 ATP using the Kinase Hotspot Technology of Reaction Biology Corp. IKK-ε and TBK-1 screening was also carried out as described above at the Km for ATP for these enzymes.

IKKε = IKKε (Homo sapiens (Human), UniProt Q14164); assay: IKKε time-resolved fluorescence Lanthascreen kinase inhibition assay; type: biochemical
IKKε, sequence (Q14164 whole entry): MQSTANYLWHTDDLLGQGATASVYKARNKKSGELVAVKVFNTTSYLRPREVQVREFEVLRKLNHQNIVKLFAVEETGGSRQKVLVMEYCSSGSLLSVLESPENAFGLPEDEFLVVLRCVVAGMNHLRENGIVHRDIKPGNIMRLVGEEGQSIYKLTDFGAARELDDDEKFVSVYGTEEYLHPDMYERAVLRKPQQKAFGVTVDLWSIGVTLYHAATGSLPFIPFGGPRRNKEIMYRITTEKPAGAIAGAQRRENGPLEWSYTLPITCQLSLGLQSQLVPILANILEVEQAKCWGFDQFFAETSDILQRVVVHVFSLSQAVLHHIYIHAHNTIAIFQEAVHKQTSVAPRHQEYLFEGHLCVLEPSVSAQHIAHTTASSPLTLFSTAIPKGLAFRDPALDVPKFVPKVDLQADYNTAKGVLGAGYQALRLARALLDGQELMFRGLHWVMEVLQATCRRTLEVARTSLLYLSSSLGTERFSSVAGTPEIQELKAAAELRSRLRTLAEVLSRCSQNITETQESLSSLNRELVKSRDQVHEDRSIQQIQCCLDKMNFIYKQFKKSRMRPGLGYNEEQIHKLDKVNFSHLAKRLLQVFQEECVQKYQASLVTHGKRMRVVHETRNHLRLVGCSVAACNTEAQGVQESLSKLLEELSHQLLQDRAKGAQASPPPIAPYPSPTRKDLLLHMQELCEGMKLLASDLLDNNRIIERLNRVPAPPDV
Protocol: (§2) Compounds of the invention (synthesised as described below) were tested for activity against the IKKε and TBK-1 enzyme as follows:
(§3) Inhibitions studies were performed using a time-resolved fluorescence-based Lanthascreen™ assay. Phosphorylation of a fluorescein-labelled substrate peptide is measured using terbium-labeled phosphospecific antibodies. Terbium is excited at 340 nm and the FRET energy transfer to fluorescein is measured at 495 and 520 nm. The emission ratio between 520 and 495 is a measure of the level of phosphorylation of the substrate by the kinase.
(§4) Kinase inhibition assays (10 μL) were performed at 20° C. in 384-well plate format. Compound IC50 values were determined at the apparent Km for ATP (20 μM) based on a radiometric assay (Invitrogen) using 8 or 10 point curves in duplicate. The final reaction conditions contained 400 nM fluorescein-IkBα substrate ([…]), 20 μM ATP, 2 nM or 8 nM IKKε or TBK1 kinase respectively, and 3% DMSO in kinase assay buffer consisting of 50 mM HEPES (pH 7.5), 10 mM MgCl, 1 mM EGTA, 0.01% Brij-35.
(§5) Compound dilutions were prepared from 10 mM DMSO stocks by dilution into DMSO.
(§6) The kinase phosphorylation assay was initiated by the addition of the kinase and the reaction was allowed to proceed for 1 hr or 2.5 hr for IKKε and TBK-1 kinase respectively. […] The reaction was stopped by the addition of 10 mM EDTA, and phosphorylation was detected after a 1 hr incubation with 1.5 nM terbium-labelled antibody against phosphorylation at Serine 32 on the IkBα[…]peptide, both in TR-FRET dilution buffer (Invitrogen).
(§7) In the data presented for IKKε, <9 μM means having an activity in the range from 300 nM≦9 μM; and <300 nM means having an activity in the range 30 nM≦300 nM; and for the data presented for TBK-1, <3 μM means having an activity in the range 300 nM≦3 μM, and <300 nM means having an activity in the range 30 nM≦300 nM.

Jnk3 = Jnk3 (Homo sapiens (Human), UniProt P53779); assay: Jnk3 radiolabelled P33 ATP assay (Kinase Hotspot Technology); type: biochemical; conditions: for IC50: at the Km for ATP, read-out: Concentration of compounds required for ~ 50% inhibition, Jnk-3
Jnk3, sequence (P53779 whole entry): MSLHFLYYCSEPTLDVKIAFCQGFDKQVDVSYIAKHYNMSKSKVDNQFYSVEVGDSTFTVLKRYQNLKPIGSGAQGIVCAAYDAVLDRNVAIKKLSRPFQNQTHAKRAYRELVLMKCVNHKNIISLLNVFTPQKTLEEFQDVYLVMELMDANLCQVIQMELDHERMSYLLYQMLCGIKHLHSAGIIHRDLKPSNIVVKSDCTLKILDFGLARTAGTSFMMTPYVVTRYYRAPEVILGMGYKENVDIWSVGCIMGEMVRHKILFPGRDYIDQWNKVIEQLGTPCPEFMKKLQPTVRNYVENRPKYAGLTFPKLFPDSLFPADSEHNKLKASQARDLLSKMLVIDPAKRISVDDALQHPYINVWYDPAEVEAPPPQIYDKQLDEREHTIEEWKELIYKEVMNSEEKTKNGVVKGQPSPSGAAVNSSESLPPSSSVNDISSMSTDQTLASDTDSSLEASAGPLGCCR
Protocol: as §1

TBK-1 = TBK-1 (Homo sapiens (Human), UniProt Q9UHD2); assay: biochemical
TBK-1, sequence (Q9UHD2 whole entry): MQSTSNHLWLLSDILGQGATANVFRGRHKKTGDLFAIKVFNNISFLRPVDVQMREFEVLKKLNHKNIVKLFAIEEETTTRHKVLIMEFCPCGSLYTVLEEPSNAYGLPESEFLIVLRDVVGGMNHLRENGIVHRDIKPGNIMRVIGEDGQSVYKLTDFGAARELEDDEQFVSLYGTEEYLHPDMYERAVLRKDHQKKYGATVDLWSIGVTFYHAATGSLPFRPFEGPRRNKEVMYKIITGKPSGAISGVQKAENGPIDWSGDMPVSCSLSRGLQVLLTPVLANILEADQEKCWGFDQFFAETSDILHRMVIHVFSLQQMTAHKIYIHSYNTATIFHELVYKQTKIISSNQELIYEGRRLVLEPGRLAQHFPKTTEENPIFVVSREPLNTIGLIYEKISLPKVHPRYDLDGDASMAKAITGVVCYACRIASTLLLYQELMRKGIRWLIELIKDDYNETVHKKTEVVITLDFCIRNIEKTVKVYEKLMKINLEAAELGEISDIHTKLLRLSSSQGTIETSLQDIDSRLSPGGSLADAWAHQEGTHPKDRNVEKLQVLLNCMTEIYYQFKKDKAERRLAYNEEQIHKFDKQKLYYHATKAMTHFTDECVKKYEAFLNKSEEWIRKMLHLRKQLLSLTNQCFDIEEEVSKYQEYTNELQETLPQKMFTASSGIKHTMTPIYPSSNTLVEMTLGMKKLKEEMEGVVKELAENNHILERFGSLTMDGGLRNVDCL
Protocol: as §2, §3, §4, §5, §6, §7

Jnk1 = Jnk1 (Homo sapiens (Human), UniProt P45983); assay: Jnk1 radiolabelled P33 ATP assay (Kinase Hotspot Technology); type: biochemical; conditions: for IC50: read-out: Concentration of compounds required for ~ 50% inhibition, Jnk-1; for inhibition at 1 µM: single point at the concentration (1000 nM), read-out: Jnk-1 percentage inhibition (in brackets)
Jnk1, sequence (P45983 whole entry): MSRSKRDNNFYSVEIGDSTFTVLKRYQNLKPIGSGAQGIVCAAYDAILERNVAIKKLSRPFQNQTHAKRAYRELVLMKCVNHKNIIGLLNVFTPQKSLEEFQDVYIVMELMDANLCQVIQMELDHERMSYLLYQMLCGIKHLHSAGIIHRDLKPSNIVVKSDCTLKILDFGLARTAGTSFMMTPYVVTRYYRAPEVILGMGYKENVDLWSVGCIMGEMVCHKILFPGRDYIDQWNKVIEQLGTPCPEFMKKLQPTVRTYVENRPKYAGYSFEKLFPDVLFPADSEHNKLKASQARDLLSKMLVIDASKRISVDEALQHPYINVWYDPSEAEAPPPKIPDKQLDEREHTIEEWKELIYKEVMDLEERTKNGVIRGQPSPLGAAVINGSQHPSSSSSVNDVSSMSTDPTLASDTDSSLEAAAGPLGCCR
Protocol: as §1

[1] = single point at the concentration (1000 nM), 1 μM ATP
[2] = 20 μM ATP (apparent Km), 2 nM kinase, 1 hr, values are activity bands, read-out: Inhibition of IKKε IC50
[3] = at the Km for ATP, read-out: Concentration of compounds required for ~ 50% inhibition, IKK-ε
[4] = 20 μM ATP (apparent Km), 8 nM kinase, 2.5 hr, values are activity bands, read-out: Inhibition of TBK-1 IC50
[5] = at the Km for ATP, read-out: Concentration of compounds required for ~ 50% inhibition, TBK-1
[6] = single point at the concentration (1000 nM), 10 μM ATP

Compound | inhibition at 1 µM (IKKβ; [1]) | IC50 (IKKβ; 1 μM ATP) | IC50 (IKKε; [2]) | IC50 (IKKε; [3]) | IC50 (Jnk3) | IC50 (TBK-1; [4]) | IC50 (TBK-1; [5]) | IC50 (Jnk1; at the Km for ATP) | inhibition at 1 µM (IKKβ; [6]) | IC50 (IKKβ; 10 μM ATP) | inhibition at 1 µM (Jnk1; 10 μM ATP) | IC50 (Jnk1; single point, 10 μM ATP) | inhibition at 1 µM (IKKβ) | inhibition at 10 µM (Jnk3; at the printed concentration (10000 nM), Km for ATP, read-out: Jnk-3 percentage inhibition (in brackets))
N#Cc1cc(-c2ccnc(Nc3ccc(C(N)=O)cc3)n2)ccc1N1CCCC1 [DMX-8] | 50% | 1000 nM | < 30 nM | 3 nM | > 10000 nM | < 30 nM | 3 nM | 354 nM |  |  |  |  |  | 
CC(=O)Nc1ccc(Nc2nccc(-c3ccc(N4CC(O)C4)c(C#N)c3)n2)cn1 [DMX-66] |  |  | < 30 nM | 21 nM |  | < 30 nM | 24 nM |  | 43% | 1000 nM | 52% | 1000 nM |  | 
N#Cc1cc(-c2ccnc(Nc3cccc(C(N)=O)c3)n2)ccc1N1CCCC1 [DMX-1, 3-[4-(3-cyano-4-pyrrolidin-1-yl-phenyl)-pyrimidin-2-ylamino]-benzamide] |  | 1000 nM | < 30 nM | 2 nM | > 10000 nM | < 30 nM | 4 nM | 254 nM |  |  |  |  | 48% | 
Cn1cc(Nc2nccc(-c3ccc(N4CCCC4)c(C#N)c3)n2)cn1 [DMX-56] |  |  | < 30 nM | 8 nM |  | < 30 nM | 3 nM |  | 56% | 1000 nM | 21% | > 1000 nM |  | 
N#Cc1cc(-c2ccnc(Nc3ccc4c(c3)CC(=O)N4)n2)ccc1N1CCCC1 [DMX-14] | 45% | 1000 nM | < 30 nM | 3 nM | > 10000 nM | < 30 nM | 2 nM | 201 nM |  |  |  |  |  | 
N#Cc1cc(-c2ccnc(Nc3ccc(N4CCOCC4)nc3)n2)ccc1N1CCCC1 [DMX-16] | 43% | 1000 nM | < 30 nM | 2 nM | > 10000 nM | < 30 nM | 1 nM | 222 nM |  |  |  |  |  | 
CN(C)CCNc1ccc(Nc2nccc(-c3ccc(N4CC[C@H](F)C4)c(C#N)c3)n2)cn1 [DMX-69] |  |  | < 30 nM | 4 nM |  | < 30 nM | 4 nM |  | 54% | 1000 nM | 43% | 1000 nM |  | 
CN1CCN(c2ccc(Nc3nccc(-c4ccc(N5CCC[C@@H]5C(N)=O)c(C#N)c4)n3)cn2)CC1 [DMX-55] |  |  | < 30 nM |  |  | < 30 nM |  |  |  |  |  |  |  | 
N#Cc1cc(-c2ccnc(Nc3cccc(NC(=O)N4CCCC4)c3)n2)ccc1N1CCCC1 [DMX-22, Pyrrolidine-1-carboxylic acid {3-[4-(3-cyano-4-pyrrolidin-1-yl-phenyl)-pyrimidin-2-ylamino]-phenyl}-amide] |  |  | < 30 nM |  |  | < 30 nM |  |  |  |  |  |  |  | 
N#Cc1cc(-c2ccnc(Nc3ccc4c(c3)NC(=O)CC4)n2)ccc1N1CCCC1 [DMX-17] |  |  | < 30 nM |  |  | < 30 nM |  |  |  |  |  |  |  | 
COC[C@H]1CCCN1c1ccc(-c2ccnc(Nc3ccc(NC(C)=O)nc3)n2)cc1C#N [DMX-71] |  |  | < 30 nM |  |  | < 30 nM |  |  |  |  |  |  |  | 
CC(=O)Nc1ccc(Nc2nccc(-c3ccc(N4CCCC4)c(C#N)c3)n2)cc1 [DMX-9] | 34% | 1000 nM | < 30 nM | 3 nM | 10000 nM | < 30 nM | 3 nM | 262 nM |  |  |  |  |  | 51%
CN(C)CCNc1ccc(Nc2nccc(-c3ccc(N4CCCC4)c(C#N)c3)n2)cn1 [DMX-33] |  |  | < 30 nM |  |  | < 30 nM |  |  |  |  |  |  |  | 
CC(=O)Nc1ccc(Nc2nccc(-c3ccc(N4CC[C@@H](O)C4)c(C#N)c3)n2)cn1 [DMX-73] |  |  | < 30 nM |  |  | < 30 nM |  |  |  |  |  |  |  | 
